Reference: patent US20020048580A1, “Method of inducing lung branching” (Institut National De La Sante Et De La Recherche Medicale, priority 2000, published 2002)
“Also recorded” adds a separate entry of the source. Like-named read-outs stand apart in the source and are kept apart here.

What was measured:
[1] = system: E12.5 RARβ wild type, heterozygote (+/−) and null (−/−) mutant lungs; experiment: ATBN in lung explants from RARβ null, heterozygote and wild type littermates; type: cell-based, mouse; details: 10^−6 M, 48 hours, vs RARβ+/− ethanol controls
Experimental: Appearance of representative E12.5 RARβ, heterozygote (+/−) and null (−/−) mutant lungs from RARβ^+/−/RARβ^+/− crosses, cultured for 24 hours in the absence of retinoids and then 48 hours in the presence of either vehicle alone or 10^−6 M RA. The accompanying histogram depicts ATBN versus treatment at 72 hours of culture; each group consists of seven explants and is representative of two individual experiments. b1=primary bronchi; b2=secondary bronchi; db=distal bud; m=mesenchyme; * p<0.01 relative to control. Error bars represent +/− standard deviation.
For explant culture, E11.75 and E12.5 lungs from RARβ^+/−×RARβ^+/−, RARγ^+/−×RARγ^+/−, CRBPI^−/−×CRBPI^−/− and wildtype crosses were dissected in PBS and incubated in BGJB medium (Fitton-Jackson modified, GibcoBRL), 5% delipidated fetal calf serum (FCS, GibcoBRL) and 180mg/ml vitamin C (Sigma) on millipore filters (GibcoBRL), at 37° C., in the presence of 5% CO2. Half of the media, supplemented with fresh retinoids (see below), was changed daily. […] Average terminal bud number (ATBN) was calculated after counting every bud in each explant at 0, 24, 48, 72 and 96 hours after the commencement of culture. Significant differences in ATBN between different groups were determined by ANOVA and Newman-Keuls multiple comparison tests according to previously described methods (Motulsky, H., Intuitive Biostatistics, New York: Oxford University Press (1995)).

lung cultures = details: cited from earlier work
CRBPI transcripts = experiment: CRBPI expression in cultured lungs (RNAse protection); type: cell-based, mouse; details: 10^−6 M, cultured E12.5 wild type lungs
Experimental: FIG. 5A. RNAse protection analysis of CRBPI transcripts in E11.75 wild type lungs cultured for four days in the presence of retinoids or ethanol; the explants were analyzed four hours after the last addition of the retinoids, and/or ethanol to the culture media (2 μg RNA per track; exposure times, four to 24 hours). Six experiments per group, 10 lungs per experiment.
The lung at the pseudoglandular stage is a major site of expression of CRBPI in the embryo (Dollé, P., et al., Development 110:1133-1151 (1990)). In cultured E12.5 wild type lungs, CRBPI expression was increased in the presence of 10^−6 M RA and decreased by 10^−6 M Compound VIII (FIG. 5A). Thus, increased and decreased expression of CRBPI are correlated with retinoid-induced inhibition and stimulation of branching, respectively. To further test an involvement of CRBPI in lung morphogenesis, explants from E12.5 CRBPI null mutants (Ghyselinck, N. B., et al., EMBO J. 18:4903-4914 (1999)) were cultured in the presence of various concentrations of the pan-RAR antagonist. […]

pulmonary alveoli = details: cited from earlier work; for number of pulmonary alveoli: postnatal treatment, newborn rats
E8.0 embryos = experiment: Whole embryo culture, primary lung bud and oesophagotracheal fold formation; type: cell-based, mouse
Experimental: Embryos were collected at E8.0 (i.e. 36 hours prior to the formation of primary lung buds and tracheal diverticulum; Kaufman, M. H., The Atlas of Mouse Development, London Academic Press (1992)), and cultured for 48 hours (i.e. until the equivalent of E9.5 in vivo) either in the presence of the pan-RAR antagonist, Compound VIII (Chazaud, C., et al., Development 126:2589-2596 (1999); Wendling, O., et al., Development 127:1553-62 (2000), or in the presence of the retinoid vehicle (i.e. ethanol alone). Treatment with 10^−6 M Compound VIII, inhibited primary lung bud outgrowth (FIGS. 1A-1D; l and r) and caused a failure of oesophagotracheal fold formation (arrowheads in FIG. 1F compare with FIG. 1G). […] Therefore, a block in RA signal transduction before and at the onset of lung bud appearance inhibits the formation of the respiratory system from the primitive foregut.
Whole embryos from CD 1×CD 1 crosses were collected at E8.0, staged and cultured according to previously described methods in the presence of retinoids or ethanol vehicle alone for 48 hours (New D.A.T., Postimplantation Mammalian Embryos: A Practical Approach, Cop, A. J. and Cockroft, D. L., eds., Oxford University Press (1990); Wendling, O., et al., Development 127:1553-62 (2000)). For morphological assessment, serial transverse histological sections were stained with hematoxylin and eosin.

E11.75 wild type lungs = experiment: Lung explant culture, average terminal bud number (ATBN), wild type; type: cell-based, mouse; details: for retinoid-induced changes in ATBN: 10^−6 M RA and 10^−6 M Compound VIII simultaneously added; for average terminal bud number (ATBN): 4 days in culture
Experimental: Lung explants from E11.75 or E12.5 embryos were cultured for 4 days, unless otherwise indicated. Control explants were cultured in the presence of the retinoid vehicle alone.
The mouse lines carrying the RARβ, RARγ and CRBPI null mutations and their genotyping protocols have been described previously (Lohnes, D., et al., Cell 73:643-658 (1993); Ghyselinck, N. B., et al., Int. J. Dev. Biol. 41:425-447 (1997); Ghyselinck, N. B., et al., EMBO J. 18:4903-4914 (1999)). The morning of appearance of the vaginal plug was designated as E0.5. For explant culture, E11.75 and E12.5 lungs from RARβ^+/−×RARβ^+/−, RARγ^+/−×RARγ^+/−, CRBPI^−/−×CRBPI^−/− and wildtype crosses were dissected in PBS and incubated in BGJB medium (Fitton-Jackson modified, GibcoBRL), 5% delipidated fetal calf serum (FCS, GibcoBRL) and […] vitamin C (Sigma) on millipore filters (GibcoBRL), at 37° C., in the presence of 5% CO2. Half of the media, supplemented with fresh retinoids (see below), was changed daily. The cultured lung buds reproducibly grew and branched for at least seven days in culture (data not shown). Average terminal bud number (ATBN) was calculated after counting every bud in each explant at 0, 24, 48, 72 and 96 hours after the commencement of culture. Significant differences in ATBN between different groups were determined by ANOVA and Newman-Keuls multiple comparison tests according to previously described methods (Motulsky, H., Intuitive Biostatistics, New York: Oxford University Press (1995)). The synthetic retinoid Compound VIII [a specific pan RAR (α, β and γ) antagonist (Bristol-Myers-Squibb, N.J.); Chazaud, C., et al., Development 126:2589-2596 (1999); Wendling, O., et al., Development 127:1553-62 (2000)] and RA (all-trans retinoic acid) (Sigma) were diluted in ethanol and added to the culture medium at a final ethanol concentration of 0.1% at the beginning of culture and every subsequent 24 hours.

RARβ transcripts = experiment: RARβ expression in lung explants (whole-mount ISH, RNAse protection); type: cell-based, mouse; details: for retinoid-induced changes in RARβ expression: 10^−6 M RA and 10^−6 M Compound VIII simultaneously added; for RARβ expression: 10^−6 M, E11.75 lung explants
Experimental: FIG. 3A. Whole-mount ISH for detection of RARβ transcripts following 24 hours of exposure of E11.75 lung explants to either retinoid vehicle alone, 10^−6 M RA or 10^−6 M Compound VIII.
FIG. 3B. RNAse protection analyses of RARβ 1/3/4, RARβ2 and vimentin transcripts in lungs explanted at E11.75 and cultured for four days in the presence of retinoids or ethanol; the explants were analyzed four hours after the last addition of the retinoids and/or ethanol to the culture media (2 μg RNA per track; exposure times, four to 24 hours).
The expression pattern of RARβ transcripts in E11.75 lung explants cultured for 24 hours in the absence of retinoids was similar to that observed in vivo at E13.5 (FIG. 3A). […] It is also noteworthy that only limited changes in the expression of vimentin, a specific mesenchymal marker, occurred following retinoid treatment (FIG. 3B). […] In order to investigate this possibility, we compared the effects of 10^−6 M RA upon ATBN in explants from RARβ null embryos (Ghyselinck, N. B., et al., Int. J. Dev. Biol. 41:425-447 (1997)), heterozygotesi and wild type littermates. […] The explants were then treated for 48 hours with 10^−6 M RA (FIG. 3C).
Total RNA preparation, RNAse protection assays and in situ hybridizations were performed as previously described (Chirgwin, J. M., et al., Biochemistry 18:5294-5299 (1979); Décimo, D., et al., “In situ hybridization of nucleic acid probes to cellular RNA,” in Gene Probes 2, A Practical Approach, Hames, B. D. and Higgins, S., eds.: Oxford University Press (1995) pp. 183-210; Mollard, R. and Dziadek, M., Int. J. Dev. Biol. 41:655-666 (1997); Ghyselinck, N. B., et al., Int. J. Dev. Biol. 41:425-447 (1997)). CRBPI, H4, RARβ and vimentin cDNAs have been previously described (Ghyselinck, N. B., et al., Int. J. Dev. Biol. 41:425-447 (1997); Mollard, R. and Dziadek, M., Int. J. Dev. Biol. 41:655-666 (1997)).

[2] = system: E12.5 RARγ wild type (+/+), heterozygote (+/−) and null (−/−) mutant lungs; experiment: ATBN in RARγ wild type, heterozygote and null lung explants; type: cell-based, mouse; details: 10^−6 M
Experimental: FIG. 4C. E12.5 RARγ wild type (+/+), heterozygote (+/−) and null (−/−) mutant lungs from RARγ^+/−/RARγ^+/−heterozygote crosses were cultured for 24 hours in the absence of retinoids and then for 72 hours in the presence of 10^−6M Compound VIII (seven explants per group, two individual experiments). […] Error bars represent +/− standard deviation. Scale bar=100 μm.
RARα1, RARα2 and RARγ2 transcripts are expressed ubiquitously in E13.5 lungs in vivo. […]
(§1) The mouse lines carrying the RARβ, RARγ and CRBPI null mutations and their genotyping protocols have been described previously (Lohnes, D., et al., Cell 73:643-658 (1993); Ghyselinck, N. B., et al., Int. J. Dev. Biol. 41:425-447 (1997); Ghyselinck, N. B., et al., EMBO J. 18:4903-4914 (1999)). […] Average terminal bud number (ATBN) was calculated after counting every bud in each explant at 0, 24, 48, 72 and 96 hours after the commencement of culture. Significant differences in ATBN between different groups were determined by ANOVA and Newman-Keuls multiple comparison tests according to previously described methods (Motulsky, H., Intuitive Biostatistics, New York: Oxford University Press (1995)). […]

[3] = system: E12.5 CRBPI null mutant lungs; experiment: ATBN in CRBPI null mutant lung explants; type: cell-based, mouse
Source text: FIG. 5B. ATBN in CRBPI null mutant lungs cultured for four days in the presence of either ethanol alone (control), or 10^−6 M or 10^−7 M Compound VIII. Six explants per group, three individual experiments; * p<0.01 relative to control. Error bars represent +/− standard deviation.
The lung at the pseudoglandular stage is a major site of expression of CRBPI in the embryo (Dollé, P., et al., Development 110:1133-1151 (1990)). In cultured E12.5 wild type lungs, CRBPI expression was increased in the presence of 10^−6 M RA and decreased by 10^−6 M Compound VIII (FIG. 5A). […]
as §1

[4] = 10^−6 M, E8.0 embryos cultured 48 hours, vs ethanol vehicle

SMILES: CC1=C(/C=C/C(C)=C/C=C/C(C)=C/C(=O)O)C(C)(C)CCC1 [RA, all-trans retinoic acid]
- ATBN ([1]; RARβ null explants): no significant difference
- ATBN ([1]; RARβ+/− explants): significant reduction
- ATBN ([1]; wild type explants): significant reduction
- branching morphogenesis (lung cultures): inhibitory effect
- CRBPI expression (CRBPI transcripts): increased
- alveolar number (pulmonary alveoli; animal models of emphysema): restores
- number of pulmonary alveoli (pulmonary alveoli): increases
- number of pulmonary alveoli (pulmonary alveoli; listed as retinoic acid): increase
- Compound VIII-induced defects of lung bud outgrowth and oesophagotracheal fold formation (E8.0 embryos; simultaneous addition of 10^−6 M Compound VIII and 10^−7 M RA, 48 hours): partially prevented
- increased explant size and terminal bud numbers of Compound VIII treated explants (E11.75 wild type lungs; 10^−6 M Compound VIII with concomitant 10^−6 M RA): reduced
- retinoid-induced changes in ATBN (E11.75 wild type lungs): prevented
- average terminal bud number (ATBN) (E11.75 wild type lungs; 10^−6 M): significantly decreased; also recorded: significant decrease
- average terminal bud number (ATBN) (E11.75 wild type lungs; 10^−7 M): significantly decreased; also recorded: significant decrease
- average terminal bud number (ATBN) (E11.75 wild type lungs; 10^−8 M): ineffective
- retinoid-induced changes in RARβ expression (RARβ transcripts): prevented
- RARβ expression (RARβ transcripts): induced the expression of RARβ throughout the pulmonary tree, including the distal buds

SMILES: CC1(C)CC=C(C#Cc2ccccc2)c2cc(/C=C/c3ccc(C(=O)O)cc3)ccc21 [Compound VIII]
- differences in the stimulation of ATBN between RARγ genotype groups [2]: No significant differences
- ATBN ([3]; CRBPI null lungs, 10^−7 M, four days): significant increase
- sensitivity of CRBPI null lungs relative to wild type lungs to stimulation of distal bud formation ([3]; CRBPI null vs wild type lungs): approximately 10 fold
- CRBPI expression (CRBPI transcripts): decreased
- oesophagotracheal fold formation (E8.0 embryos; [4]): failure
- primary lung bud outgrowth (E8.0 embryos; [4]): inhibited
- average terminal bud number (ATBN) (E11.75 wild type lungs; 2×10^−6 M): significantly increased; also recorded: significant increases
- explant size and terminal bud numbers (E11.75 wild type lungs; 10^−6 M): Increased
- retinoid-induced changes in ATBN (E11.75 wild type lungs): prevented
- RA-induced decrease in ATBN (E11.75 wild type lungs; 10^−6 M and 10^−7 M RA with concomitant 10^−6 M Compound VIII): negated
- average terminal bud number (ATBN) (E11.75 wild type lungs; 10^−6 M): significantly increased; also recorded: significant increases
- average terminal bud number (ATBN) (E11.75 wild type lungs; 10^−7 M): ineffective
- average terminal bud number (ATBN) (E11.75 wild type lungs; 10^−8 M): ineffective
- retinoid-induced changes in RARβ expression (RARβ transcripts): prevented
- RARβ expression (RARβ transcripts): decreased RARβ expression in secondary bronchi
